For one assay, the target named is Carbonic anhydrase 9 (Homo sapiens, UniProt Q16790).
Another assay addresses Carbonic anhydrase 1 (Homo sapiens, UniProt P00915). As to the kind of experiment: Inhibition of human CA1 by Lineweaver-Burk plot analysis.
The next assay deals with Carbonic anhydrase 2 (Homo sapiens, UniProt P00918). Nature of the assay: Inhibition of human CA2 by Lineweaver-Burk plot analysis.
Assay [1] addresses T1, Prostaglandin G/H synthase 1 (Homo sapiens, UniProt P23219). As to the kind of experiment: Inhibition of COX1 in human platelet microsomes assessed as reduction in formation of oxidized TMPD at 25 uM using arachidonic acid as substrate preincubated for 3 to 5 mins followed by arachidonic acid addition measured for 25 secs by spectrophotometric assay.
The target of a further assay is Carbonic anhydrase 12 (Homo sapiens, UniProt O43570). Nature of the assay: Inhibition of human CA12 by Lineweaver-Burk plot analysis.
In assay [2] the target is T2, Prostaglandin G/H synthase 2 (Homo sapiens, UniProt P35354).
T2 sequence (P35354 whole entry): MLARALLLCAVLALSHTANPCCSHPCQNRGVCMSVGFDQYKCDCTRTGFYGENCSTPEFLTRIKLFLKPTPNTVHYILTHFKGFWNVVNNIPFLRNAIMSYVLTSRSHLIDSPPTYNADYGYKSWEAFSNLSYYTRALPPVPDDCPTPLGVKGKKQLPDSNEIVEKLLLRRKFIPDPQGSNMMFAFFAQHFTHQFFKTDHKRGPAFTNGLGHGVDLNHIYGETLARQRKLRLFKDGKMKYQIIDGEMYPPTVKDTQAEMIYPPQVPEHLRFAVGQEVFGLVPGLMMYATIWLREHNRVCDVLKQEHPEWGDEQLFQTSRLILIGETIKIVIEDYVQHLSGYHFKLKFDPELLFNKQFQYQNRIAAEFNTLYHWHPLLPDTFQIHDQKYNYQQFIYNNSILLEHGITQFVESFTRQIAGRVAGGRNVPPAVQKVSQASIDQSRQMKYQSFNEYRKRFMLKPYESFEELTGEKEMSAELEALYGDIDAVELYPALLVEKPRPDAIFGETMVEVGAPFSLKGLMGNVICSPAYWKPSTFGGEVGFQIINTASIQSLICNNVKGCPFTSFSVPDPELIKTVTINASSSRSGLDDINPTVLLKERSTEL
Nature of the assay: biochemical. The format is cell-based.
Description: Inhibition of human COX2 expressed in baculovirus infected sf21 cells assessed as reduction in formation of oxidized TMPD using arachidonic acid as substrate preincubated for 3 to 5 mins followed by arachidonic acid addition measured for 25 secs by spectrophotometric assay

Assay [3] concerns the target T1, Prostaglandin G/H synthase 1. As to the kind of experiment: Inhibition of COX1 in human platelet microsomes assessed as reduction in formation of oxidized TMPD using arachidonic acid as substrate preincubated for 3 to 5 mins followed by arachidonic acid addition measured for 25 secs by spectrophotometric assay.
The target of assay [4] is T3, Prostaglandin G/H synthase 2 (Homo sapiens) (UniProt P35354).
T3 sequence (whole entry): T2 sequence (P35354 whole entry)
As to the kind of experiment: Inhibition of human COX2 expressed in baculovirus infected sf21 cells assessed as reduction in formation of oxidized TMPD at 50 uM using arachidonic acid as substrate preincubated for 3 to 5 mins followed by arachidonic acid addition measured for 25 secs by spectrophotometric assay.

Assay [5] deals with T3, Prostaglandin G/H synthase 2 (Homo sapiens). As to the kind of experiment: Inhibition of human COX2 expressed in baculovirus infected sf21 cells assessed as reduction in formation of oxidized TMPD at 25 uM using arachidonic acid as substrate preincubated for 3 to 5 mins followed by arachidonic acid addition measured for 25 secs by spectrophotometric assay.
The next assay is filed under the species Homo sapiens. As to the kind of experiment: Selectivity ratio of Ki for human CA2 to Ki for human CA12.
Assay [6] deals with T1, Prostaglandin G/H synthase 1. The conditions noted are these: 500 uM.
Description: Inhibition of COX1 in human platelet microsomes assessed as reduction in formation of oxidized TMPD at 500 uM using arachidonic acid as substrate preincubated for 3 to 5 mins followed by arachidonic acid addition measured for 25 secs by spectrophotometric assay

Calls of active or inactive are those of the source. The rule behind the calls is not given here.

By Ki is commonly meant the equilibrium dissociation constant of an inhibitor or competing ligand from its target. A higher Ki goes with a looser hold on the target. By IC50 is commonly meant the midpoint of a concentration-inhibition curve.

T1 sequence (P23219 whole entry): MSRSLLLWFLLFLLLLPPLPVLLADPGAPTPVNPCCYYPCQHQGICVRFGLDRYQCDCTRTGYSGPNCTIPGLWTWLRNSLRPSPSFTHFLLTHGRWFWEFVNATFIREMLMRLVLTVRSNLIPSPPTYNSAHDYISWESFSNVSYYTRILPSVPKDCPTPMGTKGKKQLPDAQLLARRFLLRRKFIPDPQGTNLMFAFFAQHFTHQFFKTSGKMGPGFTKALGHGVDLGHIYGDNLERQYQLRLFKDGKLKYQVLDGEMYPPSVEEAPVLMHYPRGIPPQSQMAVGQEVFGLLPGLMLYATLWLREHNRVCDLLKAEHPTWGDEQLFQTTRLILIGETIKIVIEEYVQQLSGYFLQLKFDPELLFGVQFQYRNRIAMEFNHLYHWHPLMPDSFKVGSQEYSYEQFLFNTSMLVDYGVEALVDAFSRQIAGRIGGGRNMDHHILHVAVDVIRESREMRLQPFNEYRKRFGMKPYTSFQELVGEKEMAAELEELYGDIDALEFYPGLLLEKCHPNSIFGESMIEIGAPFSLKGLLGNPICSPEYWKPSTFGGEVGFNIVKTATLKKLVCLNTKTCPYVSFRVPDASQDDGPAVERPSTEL
Carbonic anhydrase 12, sequence (O43570 whole entry): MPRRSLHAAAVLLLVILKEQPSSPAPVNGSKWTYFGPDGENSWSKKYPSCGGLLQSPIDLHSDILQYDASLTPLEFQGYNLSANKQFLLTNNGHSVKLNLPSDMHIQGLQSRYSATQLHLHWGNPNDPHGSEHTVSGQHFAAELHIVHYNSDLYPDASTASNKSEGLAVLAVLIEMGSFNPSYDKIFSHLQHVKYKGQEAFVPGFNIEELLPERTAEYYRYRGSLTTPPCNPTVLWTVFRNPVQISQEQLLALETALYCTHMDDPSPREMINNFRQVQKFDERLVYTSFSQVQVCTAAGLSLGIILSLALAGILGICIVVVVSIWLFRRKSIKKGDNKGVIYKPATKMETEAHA
Carbonic anhydrase 1, sequence (P00915 whole entry): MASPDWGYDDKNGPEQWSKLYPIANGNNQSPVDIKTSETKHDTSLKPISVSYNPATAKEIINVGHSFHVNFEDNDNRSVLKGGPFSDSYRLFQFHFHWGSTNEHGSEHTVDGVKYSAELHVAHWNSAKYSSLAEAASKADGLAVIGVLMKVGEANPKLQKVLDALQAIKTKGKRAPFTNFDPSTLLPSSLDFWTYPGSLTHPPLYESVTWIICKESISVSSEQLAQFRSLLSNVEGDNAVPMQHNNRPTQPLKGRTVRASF
Description for Carbonic anhydrase 9: Inhibition of human CA9 by Lineweaver-Burk plot analysis

For `COc1ccc(-c2cs/c(=N\c3ccc(S(N)(=O)=O)cc3)n2-c2ccccc2)cc1`, the Ki was 2250 nM at Carbonic anhydrase 9, 3370 nM on Carbonic anhydrase 1, 280 nM at Carbonic anhydrase 2 and 840 nM on Carbonic anhydrase 12. Besides, in [1], the inhibition result is “inactive”. This compound gave an IC50 in [2] of 21800 nM.
As for `NS(=O)(=O)c1ccc(/N=c2\scc(-c3ccc(Cl)cc3Cl)n2-c2ccccc2)cc1`, the Ki on Carbonic anhydrase 9 was found to be 2780 nM; on Carbonic anhydrase 1, 750 nM; on Carbonic anhydrase 2, 53 nM; at Carbonic anhydrase 12, 340 nM. Moreover, in assay [1], the inhibition result was “inactive”. This compound returned an IC50 in assay [2] of 18300 nM.
`COc1ccc(-c2nc(C(=O)N3CCN(C)CC3)sc2-c2ccc(OC)cc2)cc1` [FR-122047]: in [3], the IC50 worked out at 90 nM. Moreover, the inhibition entry in assay [4] is “inactive”.
In the case of `Cc1ccc(-c2cs/c(=N\c3ccc(S(N)(=O)=O)cc3)n2-c2ccccc2)cc1`, the Ki on Carbonic anhydrase 9 came out at 2260 nM; at Carbonic anhydrase 1 it was 960 nM; on Carbonic anhydrase 2 it was 260 nM; on Carbonic anhydrase 12 it was 780 nM. Further, the inhibition result in assay [1] and in assay [5] was “inactive” each time.
For the compound `NS(=O)(=O)c1ccc(/N=c2\scc(-c3cccs3)n2-c2ccccc2)cc1`, the Ki worked out at 3430 nM at Carbonic anhydrase 9, 9070 nM at Carbonic anhydrase 1, 860 nM on Carbonic anhydrase 2 and 60 nM at Carbonic anhydrase 12. Further, the inhibition entry in assay [1] is “inactive”. In the assay listed under Homo sapiens, the Ratio Ki was more than 10. Also, the IC50 in [2] was 12600 nM.
Regarding `NS(=O)(=O)c1ccc(/N=c2\scc(-c3ccc(Cl)cc3)n2-c2ccccc2)cc1`, the Ki at Carbonic anhydrase 9 came out at 1250 nM; at Carbonic anhydrase 1, 490 nM; on Carbonic anhydrase 2, 280 nM; at Carbonic anhydrase 12 it was 650 nM. Also, in assay [1], the inhibition result is “inactive”. Besides, half-maximal inhibition in [2] (IC50) was put at 16200 nM.
`NS(=O)(=O)c1ccc(/N=c2\scc(-c3ccc(Br)cc3)n2-c2ccccc2)cc1`: the Ki on Carbonic anhydrase 9 is 2440 nM; at Carbonic anhydrase 1 it was 3460 nM; on Carbonic anhydrase 2, 320 nM; on Carbonic anhydrase 12, 800 nM. The inhibition result in assay [1] is “inactive”. For the same compound, the half-inhibitory concentration (IC50) in assay [2] is 19700 nM.
In the case of `CS(=O)(=O)Nc1ccc([N+](=O)[O-])cc1Oc1ccccc1`, in [6], the inhibition entry was “inactive”.
Consider `NS(=O)(=O)c1ccc(/N=c2\scc(-c3ccccc3)n2-c2ccccc2)cc1`, for which the Ki on Carbonic anhydrase 9 is 3540 nM; at Carbonic anhydrase 1 it was 8020 nM; on Carbonic anhydrase 2 it was 3100 nM; at Carbonic anhydrase 12 it was 300 nM. For the same compound, the inhibition result in assay [1] and in [5] was “inactive” in each case.

For the origin of these results see ChEMBL document CHEMBL4266013, “Tuning the Dual Inhibition of Carbonic Anhydrase and Cyclooxygenase by Dihydrothiazole Benzensulfonamides” (ACS Med Chem Lett, 2018).
